# Measurements from patent US6737383B1, “Herbicidal oxadiazolidines” (priority 1999, dated 2004).
# Assays:
# black nightshade = assay: Test E black nightshade; type: in vivo, Solanum nigra; details: Postemergence
# Description: (§1) Compounds evaluated in this test were formulated in a non-phytotoxic solvent mixture which included a surfactant and applied to plants that were in the 1- to 4-leaf stage (postemergence application). A mixture of sandy loam soil and greenhouse potting mix in a 60:40 ratio was used for the postemergence test.
# (§2) Plantings of these crops and weed species were adjusted to produce plants of appropriate size for the postemergence test. All plant species were grown using normal greenhouse practices. Crop and weed species include annual bluegrass (Poa annua), blackgrass (Alopecurus myosuroides), black nightshade (Solanum nigra), chickweed (Stellaria media), common poppy (Papaver rhoeas), deadnettle (Lamium amplexicaule), downy brome (Bromus tectorum), field violet (Viola arvensis), galium (Galium aparine), green foxtail (Setaria viridis), Italian ryegrass (Lolium multiflorum), jointed goatgrass (Aegilops cylindrica), kochia (Kochia scoparia), lambsquarters (Chenopodium album), littleseed canarygrass (Phalaris minor), rape (Brassica napus), redroot pigweed (Amaranthus retroflexus), Russian thistle (Salsola kali), scentless chamomile (Matricaria inodora), spring barley (Hordeum vulgare), sugar beet (Beta vulgaris), sunflower (Helianthus annuus), ivyleaf speedwell (Veronica hederaefolia), spring wheat (Triticum aestivum), winter wheat (Triticum aestivum), wild buckwheat (Polygonum convolvulus), wild mustard (Sinapis arvensis), wild oat (Avena fatua), windgrass (Apera spica-venti) and winter barley (Hordeum vulgare).
# (§3) Treated plants and untreated controls were maintained in a greenhouse for approximately 21 to 28 days, after which all treated plants were compared to untreated controls and visually evaluated. […] A dash response (-) means no test result.
# deadnettle [1] = assay: Test E deadnettle; type: in vivo, Lamium amplexicaule; details: Postemergence
# Description: as §1, §2, §3
# field violet = assay: Test E field violet; type: in vivo, Viola arvensis; details: Postemergence
# Outline: (§4)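 Postemergence: spray at 1–4 leaf stage, soil 60:40 sandy loam:potting mix; solvent + surfactant formulation; greenhouse 21–28 d; visual injury vs untreated controls.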
# redroot pigweed = assay: Test E redroot pigweed; type: in vivo, Amaranthus retroflexus; details: Postemergence
# Outline: as §4
# Russian thistle [2] = assay: Test E Russian thistle; type: in vivo, Salsola kali; details: Postemergence
# Description: […] A mixture of sandy loam soil and greenhouse potting mix in a 60:40 ratio was used for the postemergence test.
# as §2, §3
# sugar beet [3] = assay: Test E sugar beet; type: in vivo, Beta vulgaris; details: Postemergence
# Outline: as §4
# ivyleaf speedwell = assay: Test E postemergence ivyleaf speedwell; type: in vivo, Veronica hederaefolia
# Description: as §1, §2, §3
# wild oat = assay: Test E wild oat; type: in vivo, Avena fatua; details: Postemergence
# Description: as §1, §2, §3
# winter barley = assay: Test E winter barley; type: in vivo, Hordeum vulgare; details: Postemergence
# Outline: as §4
# deadnettle [4] = assay: Test E deadnettle; type: in vivo, Lamium amplexicaule; details: Preemergence
# downy brome = assay: Test E downy brome; type: in vivo, Bromus tectorum; details: Preemergence
# galium = assay: Test E galium; type: in vivo, Galium aparine; details: Preemergence
# Russian thistle [5] = assay: Test E Russian thistle; type: in vivo, Salsola kali; details: Preemergence
# scentless chamomile = assay: Test E scentless chamomile; type: in vivo, Matricaria inodora; details: Preemergence
# sugar beet [6] = assay: Test E sugar beet; type: in vivo, Beta vulgaris; details: Preemergence
# spring wheat = assay: Test E spring wheat; type: in vivo, Triticum aestivum; details: Preemergence
# windgrass = assay: Test E windgrass; type: in vivo, Apera spica-venti; details: Preemergence
# Alexandergrass = assay: Test D Alexandergrass; type: in vivo, Brachiaria plantaginea; details: Postemergence
# goosegrass = assay: Test D goosegrass; type: in vivo, Eleusine indica; details: Postemergence, 0 to 100 scale
# itchgrass = assay: Test D itchgrass; type: in vivo, Rottboellia exaltata; details: Postemergence, 0 to 100 scale
# large crabgrass = assay: Test D large crabgrass; type: in vivo, Digitaria sanguinalis; details: Postemergence, 0 to 100 scale
# purple nutsedge = assay: Test D purple nutsedge; type: in vivo, Cyperus rotundus; details: Postemergence, 0 to 100 scale; for Purple nutsedge plant response rating: 0 no injury, 100 complete control
# sandbur = assay: Test D sandbur; type: in vivo, Cenchrus echinatus; details: Postemergence, 0 to 100 scale; for Sandbur plant response rating: 0 no injury, 100 complete control
# [7] = Rate 250 g/ha, 0 to 100 scale (0 no effect, 100 complete control)
# [8] = Rate 500 g/ha, 0 to 100 scale, 0 no effect, 100 complete control
# [9] = Rate 125 g/ha, 0 to 100 scale (0 no effect, 100 complete control)
# [10] = Rate 500 g/ha, 0 to 100 scale where 0 is no effect and 100 is complete control
# [11] = Rate 64 g/ha, 0 no injury, 100 complete control
# [12] = Rate 125 g/ha, 0 no injury, 100 complete control
smiles,measurement,setting,value
CC(C)N(C(=O)n1oc(=O)n(C(C)C)c1=O)c1ccc(F)cc1F [Compound 109],"Plant response rating, Blk nightshade","black nightshade; Rate 125 g/ha, 0 to 100 scale",40
same,"Plant response rating, Blk nightshade",black nightshade; [7],40
same,"Plant response rating, Blk nightshade",black nightshade; [8],60
same,"Plant response rating, Deadnettle","deadnettle [1]; Rate 125 g/ha, 0 to 100 scale",0
same,"Plant response rating, Deadnettle",deadnettle [1]; [7],30
same,"Plant response rating, Deadnettle",deadnettle [1]; [8],30
same,"Plant response rating, Field violet","field violet; Rate 125 g/ha, 0 to 100 scale",10
same,"Plant response rating, Field violet",field violet; [7],20
same,"Plant response rating, Field violet",field violet; [8],40
same,"Plant response rating, Redroot pigweed","redroot pigweed; Rate 125 g/ha, 0 to 100 scale",20
same,"Plant response rating, Redroot pigweed",redroot pigweed; [7],15
same,"Plant response rating, Redroot pigweed",redroot pigweed; [8],15
same,"Plant response rating, Russian thistle","Russian thistle [2]; Rate 125 g/ha, 0 to 100 scale",0
same,"Plant response rating, Russian thistle",Russian thistle [2]; [7],0
same,"Plant response rating, Russian thistle",Russian thistle [2]; [8],0
same,"Plant response rating, Sugar beet","sugar beet [3]; Rate 125 g/ha, 0 to 100 scale",30
same,"Plant response rating, Sugar beet",sugar beet [3]; [7],35
same,"Plant response rating, Sugar beet",sugar beet [3]; [8],30
same,"Plant response rating, Veronica hedera","ivyleaf speedwell; Rate 125 g/ha, 0 to 100 scale",20
same,"Plant response rating, Veronica hedera",ivyleaf speedwell; [7],50
same,"Plant response rating, Veronica hedera",ivyleaf speedwell; [8],70
same,"Plant response rating, Wild oat","wild oat; Rate 125 g/ha, 0 to 100 scale",0
same,"Plant response rating, Wild oat",wild oat; [7],0
same,"Plant response rating, Wild oat",wild oat; [8],10
same,"Plant response rating, Barley (winter)","winter barley; Rate 125 g/ha, 0 to 100 scale",40
same,"Plant response rating, Barley (winter)",winter barley; [7],20
same,"Plant response rating, Barley (winter)",winter barley; [8],10
same,"Plant response rating, Deadnettle",deadnettle [4]; [9],20
same,"Plant response rating, Deadnettle","deadnettle [4]; Rate 250 g/ha, 0 to 100 scale",30
same,"Plant response rating, Deadnettle",deadnettle [4]; [10],30
same,"Plant response rating, Downy brome",downy brome; [9],0
same,"Plant response rating, Downy brome","downy brome; Rate 250 g/ha, 0 to 100 scale",80
same,"Plant response rating, Downy brome",downy brome; [10],60
same,"Plant response rating, Galium",galium; [9],100
same,"Plant response rating, Galium","galium; Rate 250 g/ha, 0 to 100 scale",100
same,"Plant response rating, Galium",galium; [10],100
same,"Plant response rating, Russian thistle",Russian thistle [5]; [9],0
same,"Plant response rating, Russian thistle","Russian thistle [5]; Rate 250 g/ha, 0 to 100 scale",0
same,"Plant response rating, Russian thistle",Russian thistle [5]; [10],0
same,"Plant response rating, Scentless chamo",scentless chamomile; [9],0
same,"Plant response rating, Scentless chamo","scentless chamomile; Rate 250 g/ha, 0 to 100 scale",30
same,"Plant response rating, Scentless chamo",scentless chamomile; [10],30
same,"Plant response rating, Sugar beet",sugar beet [6]; [9],0
same,"Plant response rating, Sugar beet","sugar beet [6]; Rate 250 g/ha, 0 to 100 scale",60
same,"Plant response rating, Sugar beet",sugar beet [6]; [10],70
same,"Plant response rating, Spring Wheat",spring wheat; [9],20
same,"Plant response rating, Spring Wheat","spring wheat; Rate 250 g/ha, 0 to 100 scale",40
same,"Plant response rating, Spring Wheat",spring wheat; [10],50
same,"Plant response rating, Windgrass",windgrass; [9],100
same,"Plant response rating, Windgrass",windgrass; [10],100
CC(C)N(C(=O)n1oc(=O)n(C2CC2)c1=O)c1ccc(F)cc1F [Compound 299],"Plant response rating, Alexandergrass","Alexandergrass; Rate 64 g/ha, 0 to 100 scale, 0 no injury, 100 complete control",90
same,"Plant response rating, Alexandergrass","Alexandergrass; Rate 125 g/ha, 0 to 100 scale, 0 no injury, 100 complete control",100
same,"Plant response rating, Alexandergrass","Alexandergrass; Rate 250 g/ha, 0 to 100 scale",100
same,"Plant response rating, Alexandergrass","Alexandergrass; Rate 500 g/ha, 0 to 100 scale (0 no injury, 100 complete control)",100
same,"Plant response rating, Alexandergrass","Alexandergrass; Rate 500 g/ha, 0 to 100 scale",100
same,"Plant response rating, Goosegrass",goosegrass; [11],90
same,"Plant response rating, Goosegrass",goosegrass; [12],100
same,"Plant response rating, Goosegrass",goosegrass; Rate 250 g/ha,100
same,"Plant response rating, Goosegrass",goosegrass; Rate 500 g/ha,100
same,"Plant response rating, Itchgrass",itchgrass; [11],0
same,"Plant response rating, Itchgrass",itchgrass; [12],10
same,"Plant response rating, Itchgrass",itchgrass; Rate 250 g/ha,50
same,"Plant response rating, Itchgrass",itchgrass; Rate 500 g/ha,100
same,Plant response rating Large crabgrass,large crabgrass; [11],100
same,Plant response rating Large crabgrass,large crabgrass; [12],100
same,Plant response rating Large crabgrass,large crabgrass; Rate 250 g/ha,100
same,Plant response rating Large crabgrass,large crabgrass; Rate 500 g/ha,100
same,Purple nutsedge plant response rating,purple nutsedge; Rate 64 g/ha,0
same,Purple nutsedge plant response rating,purple nutsedge; Rate 125 g/ha,0
same,"Plant response rating, Purple nutsedge",purple nutsedge; Rate 250 g/ha,0
same,"Plant response rating, Purple nutsedge",purple nutsedge; Rate 500 g/ha,100
same,Sandbur plant response rating,sandbur; Rate 64 g/ha,90
same,Sandbur plant response rating,sandbur; Rate 125 g/ha,100
same,"Plant response rating, Sandbur",sandbur; Rate 250 g/ha,100
same,"Plant response rating, Sandbur",sandbur; Rate 500 g/ha,100
